In patent US5573936A, “Process for purifying echinocandin B deacylase” (Eli Lilly and Company, priority 1995, dated 1996):
*1 amine or outer side, *2 acyl side, *3 side chain or, on linkers, in order; H or OH if unused. Where a SMILES comes first, the peptide text is derived from it. Bridges are numbered along the chain shown (N, C = ends). [ ]: non-standard residue; d: D form. The star is where a group is joined. ξ: configuration not given here. ξOrn(4,5-diOH) = O=C(C(CC(O)C(O)N[*:3])N[*:1])[*:2]; ξhTyr(βξ-OH,γξ-OH) = NC(C(=O)O)C(O)C(O)c1ccc(O)cc1; ξPro(3ξ-OH,4ξ-Me) = CC1CNC(C(=O)O)C1O; X2 = O=C(C=Cc1ccc(N[*:1])cc1)[*:2]; Palmitoyl = CCCCCCCCCCCCCCCC(=O)*; X6 = O=C(Cc1ccc(N[*:1])cc1)[*:2]; X3 = CCCCCCCCOc1ccc(CC(=O)*)cc1; X5 = CCCCCCCOc1ccc(CCC(=O)*)cc1; X1 = CCCCCC=CCC=CCCCCCCCC(=O)*; X4 = CCCCCOc1ccc(CCC(=O)*)cc1; Hyp = O=C(O)[CH]1C[CH](O)CN1; Lauroyl = CCCCCCCCCCCC(=O)*; 4Abz = Nc1ccc(C(=O)O)cc1

Molecular target: T1, ECB deacylase (Actinoplanes utahensis, UniProt P29958)
T1 construct: ECB deacylase is an 81-kilodalton (KD) heterodimer comprising 63-KD and 18 KD subunits; made in house; host or cells: Actinoplanes utahensis (native producer, not recombinant); enzyme solubilized from whole cells with salt and purified
T1 sequence (P29958 230-786 limits assumed): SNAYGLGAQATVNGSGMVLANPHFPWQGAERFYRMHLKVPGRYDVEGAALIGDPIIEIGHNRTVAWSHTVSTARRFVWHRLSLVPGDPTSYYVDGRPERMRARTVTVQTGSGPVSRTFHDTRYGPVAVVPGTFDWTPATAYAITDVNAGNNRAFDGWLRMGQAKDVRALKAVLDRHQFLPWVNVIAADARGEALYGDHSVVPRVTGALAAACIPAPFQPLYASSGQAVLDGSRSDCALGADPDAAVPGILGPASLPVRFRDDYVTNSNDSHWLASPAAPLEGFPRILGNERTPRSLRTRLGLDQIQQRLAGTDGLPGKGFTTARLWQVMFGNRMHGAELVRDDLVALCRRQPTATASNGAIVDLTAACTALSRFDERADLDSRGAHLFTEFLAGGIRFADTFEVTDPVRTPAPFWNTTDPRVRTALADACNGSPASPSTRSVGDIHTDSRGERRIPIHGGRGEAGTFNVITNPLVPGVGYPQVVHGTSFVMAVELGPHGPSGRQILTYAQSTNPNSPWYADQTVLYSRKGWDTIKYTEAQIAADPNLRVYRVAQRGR
T1 sequence (P29958 35-214 limits assumed): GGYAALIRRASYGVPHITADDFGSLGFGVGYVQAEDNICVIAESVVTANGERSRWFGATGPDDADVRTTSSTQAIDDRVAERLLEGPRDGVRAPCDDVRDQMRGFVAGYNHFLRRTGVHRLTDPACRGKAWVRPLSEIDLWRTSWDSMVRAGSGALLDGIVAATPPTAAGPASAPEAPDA
Assay: ECB deacylase assay (formation of ECB nucleus by HPLC)
Format: biochemical
Details: for percent activity relative to the deacylase activity of 100% for ECB itself: substrate specificity
Method: The assay employed herein for determining and measuring deacylase activity utilizes echinocandin B as substrate. A typical reaction mixture of 1 ml for ECB deacylase assay contained […] of ECB and 0.000003 to 0.003 unit of the enzyme in 0.05M KH2 PO4, pH 6.0, in the presence of 0.68M KCl and 15% DMSO to effect solution of the ECB. The enzymatic reaction was initiated by addition of the enzyme and was continued for 20 min at 60° C. before being interrupted by the addition of phosphoric acid. After a low-speed centrifugation to remove precipitated protein, the deacylase activity was determined by monitoring the formation of ECB nucleus at 225 nm using HPLC.
HPLC components were IBM PS/2 Model 80 and Color Display (IBM, Armonk, N.Y.), a Water 715 Ultra WISP Sample Processor (Waters Associates, Milford, Mass.), and a Beckman System Gold Programmable Solvent Module 126 and Scanning Detector Module 167 (Beckman, Fullerton, Calif.).
The ECB nucleus was eluted from an Apex Octadecyl 3 μ column (4.6×10 cm) (Jones Chromatography, Littleton, Co.) with a mobile phase of 3.9% CH3 CN/0.1% trifluoroacetic acid and a flow rate of 1 ml/min. The nucleus formation was linear with time during the assays. […] As used herein one unit of enzyme activity is defined as the amount of the deacylase required to cause formation of one μmole of the ECB nucleus per minute from ECB under the above described reaction conditions.

Compound | substrate of the purified deacylase (in words) (purified deacylase) | percent activity relative to the deacylase activity of 100% for ECB itself (purified deacylase) [%] | also measured
CCCCCCCCCCCC(=O)Nc1ccc(C(=O)NC2CC(O)C(O)NC(=O)C3C(O)C(C)CN3C(=O)C(C(C)O)NC(=O)C(C(O)C(O)c3ccc(O)cc3)NC(=O)C3CC(O)CN3C(=O)C(C(C)O)NC2=O)cc1 (stereo not drawn) ({Lauroyl-4Abz}-[ξOrn(4,5-diOH)]T[Hyp][ξhTyr(βξ-OH,γξ-OH)]T[ξPro(3ξ-OH,4ξ-Me)]; lactam 1-C; configuration not given here) | substrates |  | 
CCCCCCCCCCCCCCCC(=O)NC1CC(O)C(O)NC(=O)C2C(O)C(C)CN2C(=O)C(C(C)O)NC(=O)C(C(O)C(O)c2ccc(O)cc2)NC(=O)C2CC(O)CN2C(=O)C(C(C)O)NC1=O (stereo not drawn) [aculeacin] (Palmitoyl-[ξOrn(4,5-diOH)]T[Hyp][ξhTyr(βξ-OH,γξ-OH)]T[ξPro(3ξ-OH,4ξ-Me)]; lactam 1-C; configuration not given here) | deacylates |  | 
Daptomycin | cleaves the fatty acid side chain |  | 
CCCCCCCCCCCC(=O)Nc1ccc(CC(=O)NC2CC(O)C(O)NC(=O)C3C(O)C(C)CN3C(=O)C(C(C)O)NC(=O)C(C(O)C(O)c3ccc(O)cc3)NC(=O)C3CC(O)CN3C(=O)C(C(C)O)NC2=O)cc1 (stereo not drawn) (Lauroyl-[X6][ξOrn(4,5-diOH)]T[Hyp][ξhTyr(βξ-OH,γξ-OH)]T[ξPro(3ξ-OH,4ξ-Me)]; lactam 2-C; configuration not given here) |  | 5 | 
CCCCCCCCOc1ccc(CC(=O)NC2CC(O)C(O)NC(=O)C3C(O)C(C)CN3C(=O)C(C(C)O)NC(=O)C(C(O)C(O)c3ccc(O)cc3)NC(=O)C3CC(O)CN3C(=O)C(C(C)O)NC2=O)cc1 (stereo not drawn) (X3-[ξOrn(4,5-diOH)]T[Hyp][ξhTyr(βξ-OH,γξ-OH)]T[ξPro(3ξ-OH,4ξ-Me)]; lactam 1-C; configuration not given here) |  | 30 | 
CCCCCOc1ccc(CCC(=O)NC2CC(O)C(O)NC(=O)C3C(O)C(C)CN3C(=O)C(C(C)O)NC(=O)C(C(O)C(O)c3ccc(O)cc3)NC(=O)C3CC(O)CN3C(=O)C(C(C)O)NC2=O)cc1 (stereo not drawn) (X4-[ξOrn(4,5-diOH)]T[Hyp][ξhTyr(βξ-OH,γξ-OH)]T[ξPro(3ξ-OH,4ξ-Me)]; lactam 1-C; configuration not given here) |  | 12 | 
CCN1C(=O)C=CC1=O [N-ethylmaleimide (NEM), N-ethylmaleimide] |  |  | enhancement of the rate of conversion of ECB to ECB nucleus (purified deacylase): 6-7 fold
CCCCCCCOc1ccc(CCC(=O)NC2CC(O)C(O)NC(=O)C3C(O)C(C)CN3C(=O)C(C(C)O)NC(=O)C(C(O)C(O)c3ccc(O)cc3)NC(=O)C3CC(O)CN3C(=O)C(C(C)O)NC2=O)cc1 (stereo not drawn) (X5-[ξOrn(4,5-diOH)]T[Hyp][ξhTyr(βξ-OH,γξ-OH)]T[ξPro(3ξ-OH,4ξ-Me)]; lactam 1-C; configuration not given here) |  | 30 | 
CCCCCC=CCC=CCCCCCCCC(=O)NC1CC(O)C(O)NC(=O)C2C(O)C(C)CN2C(=O)C(C(C)O)NC(=O)C(C(O)C(O)c2ccc(O)cc2)NC(=O)C2CC(O)CN2C(=O)C(C(C)O)NC1=O (stereo not drawn) [echinocandin B] (X1-[ξOrn(4,5-diOH)]T[Hyp][ξhTyr(βξ-OH,γξ-OH)]T[ξPro(3ξ-OH,4ξ-Me)]; lactam 1-C; configuration not given here) | deacylates | 100 | ratio of ECB nucleus formed to ECB disappearance (reaction stoichiometry): about 52.4%; Vmax for the ECB reaction (purified enzyme): 10 to 11 µmol/min/mg
CCCCCCCCCCCC(=O)Nc1ccc(C=CC(=O)NC2CC(O)C(O)NC(=O)C3C(O)C(C)CN3C(=O)C(C(C)O)NC(=O)C(C(O)C(O)c3ccc(O)cc3)NC(=O)C3CC(O)CN3C(=O)C(C(C)O)NC2=O)cc1 (stereo not drawn) (Lauroyl-[X2][ξOrn(4,5-diOH)]T[Hyp][ξhTyr(βξ-OH,γξ-OH)]T[ξPro(3ξ-OH,4ξ-Me)]; lactam 2-C; configuration not given here) |  | 15 | 
